Test results from patent US5948793A, “3-pyridyloxymethyl heterocyclic ether compounds useful in controlling neurotransmitter release” (Abbott Laboratories, priority 1995, dated 1999).
Where a name gives a salt, the structure may show the parent alone. Read-outs that look alike come from different tables or passages of the source.

Tests used:
[1] = target: neuronal nicotinic cholinergic channel receptors; assay: [3H]-cytisine displacement binding to neuronal nicotinic cholinergic channel receptors; assay type: rat (crude synaptic membranes from whole rat brain); conditions: read-out: Receptor Binding Ki
Procedure: B. Protocol For Determination of Nicotinic Cholinergic Channel Receptor Binding Potencies of Ligands
Binding of [^3 H]-cytisine ([^3 H]-CYT) to nicotinic receptors was accomplished using crude synaptic membrane preparations from whole rat brain (Pabreza et al., Molecular Pharmaol., 1990, 39:9). Washed membranes were stored at -80° C. prior to use. Frozen aliquots were slowly thawed and resuspended in 20 volumes of buffer (containing: 120 mM NaCl, 5 mM KCl, 2 mM MgCl2, 2 mM CaCl2 and 50 mM Tris-Cl, pH 7.4 @4° C.). After centrifuging at 20,000×g for 15 minutes, the pellets were resuspended in 30 volumes of buffer. Homogenate (containing […]) was added to triplicate tubes containing concentrations of test compound and [^3 H]-CYT (1.25 nM) in a final volume of 500 μL. Samples were incubated for 60 minutes at 4° C., then rapidly filtered through Whatman GF/B filters presoaked in 0.5% polyethylimine using 3×4 mL of ice-cold buffer. The filters are counted in 4 mL of Ecolume® (ICN). […] Alternately, data were expressed as a percentage of the total specific binding.

[2] = test system: nAChR evoked release of [3H]-dopamine, rat striatal slices; assay: Striatal dopamine release assay (nAChR evoked release of [3H]-dopamine from superfused rat striatal slices); assay type: cell-based, rat (male Sprague-Dawley); conditions: Table 1, relative to 100 nM (-)-nicotine
Procedure: The protocol for this procedure follows below.
A. Protocol for Determination of Striatal Dopamine Release.
nAChR evoked release of [ring-2,5,6-^3 H]-dopamine (24.4 Ci/mmol) was measured in superfused rat striatal slices. Striata were dissected from two male Sprague-Dawley rats per experiment and sliced 0.35×0.25 mm by a McIlwain Tissue Chopper (Brinkman Instrument Co., Westbury, N.Y.). After two washes with Krebs-HEPES buffer (137 mM NaCl, 4.7 mM KCl, 1 mM MgSO4, 2.5 mM CaCl2, 1.25 mM NaH2 PO4, 10 mM glucose, 15 mM HEPES-NaOH, pH 7.4, containing 10 μM pargyline and 10 μM ascorbic acid), slices were preincubated for 10 minutes at 37° C. under 95%/5% O2 /CO2. After replacing the buffer, slices were labeled with 100 nM [^3 H]-dopamine for 25 min in Krebs-HEPES at 37° C. Aliquots of slices were placed in 18 superfusion chambers of a Brandel SP2000 superfusion apparatus (Brandel, Gaithersberg, Md.). Following 47 minutes of washout, slices were exposed to agonist at various concentrations for 4 minutes. Antagonists or inhibitors, when present were introduced 4 minutes prior to and during agonist exposure. Collected fractions were counted in 5 mL of Ecolume. Tissue was recovered from superfusion chambers, solubilized with 1 mL of Solvable™ (DuPont-NEN) and counted in 15 mL of Ecolume. Fractional release of [^3 H]-dopamine was calculated from radioactivity above baseline as a fraction of total radioactivity.

[3] = test system: release of dopamine and acetylcholine; conditions: cited from earlier work
[4] = Table 1, [3H]-cytisine 1.25 nM, 60 min at 4° C.
[5] = example concentration ** = 1 μM
[6] = example concentration * = 10 μM
[7] = example concentration *** = 0.1 μ
[8] = Table 2, [3H]-cytisine 1.25 nM, 60 min at 4° C.

## CN1CC[C@H]1COc1cnccn1.Cl.Cl [Example 8, 2-((1-methyl-2-(S)-azetidinyl)methoxy)pyrazine dihydrochloride]
[1]; [4]
  Ki: 33 nM
[2]; [5]
  Dopamine Release relative to Nicotine: 0.55

## CN1CCC[C@@H]1COc1cccnc1.Cl [Example 1, 3-((1-methyl-2-(R)-pyrrolidinyl)methoxy)pyridine hydrochloride]
[1]; [4]
  Ki: 23 nM
[2]; [6]
  Dopamine Release relative to Nicotine: 0.08

## CN1CC[C@H]1COc1cccnc1.Cl.Cl [Example 10, 3-((1-methyl-2-(S)-azetidinyl)methoxy)pyridine dihydrochloride]
[1]
  Ki: 0.25 nM
[2]; [6]
  Dopamine Release relative to Nicotine: 1.0

## Clc1ccc(OC[C@@H]2CCN2)cn1 [Example 52, 3-(2-(S)-azetidinylmethoxy)-6-chloropyridine dihydrochloride]
[1]; [4]
  Ki: 0.04 nM
[2]; [6]
  Dopamine Release relative to Nicotine: 1.0

## Cc1ccc(OC[C@H]2CCCN2)cn1.Cl.Cl [Example 37, 6-methyl-3-(2-(R)-pyrrolidinylmethoxy)pyridine dihydrochloride]
[1]
  Ki: 0.5 nM
[2]; [6]
  Dopamine Release relative to Nicotine: 0.8

## C[C@H](N)Cc1ccccc1 [d-amphetamine]
[3]
  release of dopamine and acetylcholine: enhance the release of dopamine and acetylcholine

## Cc1ccncc1OC[C@@H]1CCCN1C.Cl.Cl [Example 46, 4-methyl-3-((1-methyl-2-(S)-pyrrolidinyl)methoxy)pyridine dihydrochloride]
[1]; [4]
  Ki: 4 nM
[2]; [6]
  Dopamine Release relative to Nicotine: 0.85

## CN1CCC[C@H]1COc1cncc(Cl)c1.Cl.Cl [Example 16, 5-chloro-3-((1-methyl-2-(S)-pyrrolidinyl)methoxy)pyridine dihydrochloride]
[2]; [5]
  Dopamine Release relative to Nicotine: 1.0

## CN1CCC[C@H]1COc1cccnc1.O=C(O)/C=C/C(=O)O [Example 4, 3-((1-methyl-2-(S)-pyrrolidinyl)methoxy)pyridine fumarate]
[1]
  Ki: 0.2 nM
[2]; [6]
  Dopamine Release relative to Nicotine: 1.0

## Cl.Cl.Clc1cncc(OC[C@H]2CCCN2)c1 [Example 33, 5-chloro-3-(2-(R)-pyrrolidinylmethoxy)pyridine dihydrochloride]
[1]; [4]
  Ki: 0.2 nM
[2]; [5]
  Dopamine Release relative to Nicotine: 0.62

## CN1CCC[C@H]1COc1cnc2ccccc2c1.Cl [Example 31, 3-(1-methyl-2-(S)-pyrrolidinylmethoxy)quinoline hydrochloride]
[1]; [4]
  Ki: 0.7 nM
[2]; [6]
  Dopamine Release relative to Nicotine: 0.15

## O=C(O)/C=C/C(=O)O.c1cncc(OC[C@@H]2CCCN2)c1 [Example 14, 3-(2-(S)-pyrrolidinylmethoxy)pyridine fumarate]
[1]
  Ki: 0.14 nM
[2]; [5]
  Dopamine Release relative to Nicotine: 1.0

## CCN1CCC[C@H]1COc1cccnc1.Cl.Cl [Example 38, 3-((1-ethyl-2(S)-pyrrolidinyl)methoxy)pyridine dihydrochloride]
[1]
  Ki: 13 nM
[2]; [6]
  Dopamine Release relative to Nicotine: 0.6

## Cc1ccc(OC[C@@H]2CCCN2C)cn1.Cl.Cl [Example 19, 6-methyl-3-((1-methyl-2-(S)-pyrrolidinyl)methoxy)pyridine dihydrochloride]
[1]
  Ki: 1.47 nM
[2]; [7]
  Dopamine Release relative to Nicotine: 0.78

## COC(=O)C(c1ccccc1)C1CCCCN1 (centres unmarked) [methylphenidate]
[3]
  release of dopamine and acetylcholine: enhance the release of dopamine and acetylcholine

## CCC[C@H]1CCN[C@H]1COc1cccnc1 (relative stereo) [Example 61, 3-((cis-3-propyl-2-pyrrolidinyl)methoxy)pyridine dihydrochloride]
[1]; [8]
  Ki: 1.3 nM

## Brc1cncc(OC[C@@H]2CCN2)c1 [Example 67, 3-(2-(S)-azetidinylmethoxy)-5-bromopyridine dihydrochloride]
[1]; [8]
  Ki: 0.2 nM

## Cc1ccc(OC[C@@H]2CCN2C)cn1.Cl.Cl [Example 59, 3-((1-methyl-2-(S)-azetidinyl)methoxy)-6-methylpyridine dihydrochloride]
[1]; [4]
  Ki: 4.5 nM
[2]; [6]
  Dopamine Release relative to Nicotine: 0.7

## CC(Oc1cccnc1)[C@@H]1CCCN1C (stereo partly drawn) [Example 6, 3-(a-methyl-(1-methyl-2-(S)-pyrrolidinyl)methoxy)pyridine hydrochloride]
[1]
  Ki: 6.7 nM

## CN1CCC[C@@H]1COc1ccc(Cl)nn1 [Example 5, oxalate]
[1]
  Ki: 87 nM

## Brc1cncc(OC[C@@H]2CCCN2)c1 [Example 65, 5-bromo-3-(2-(S)-pyrrolidinylmethoxy)pyridine dihydrochloride]
[1]; [8]
  Ki: 0.6 nM

## CN1CCC[C@H]1COc1cncc(C(F)(F)F)c1 [Example 44, 3-(1-methyl-2-(S)-pyrrolidinylmethoxy)-5-trifluoromethylpyridine dihydrochloride]
[1]; [8]
  Ki: 1.8 nM

## Clc1cncc(OC[C@@H]2CCN2)c1 [Example 39, 5-chloro-3-(2-(S)-azetidinylmethoxy)pyridine dihydrochloride]
[1]; [8]
  Ki: 0.04 nM

## CN1C[C@H](O)C[C@H]1COc1cccnc1 [Example 23, 3-((trans-1-methyl-4-hydroxy-2(S)-pyrrolidinyl)methoxy)pyridine dihydrochloride]
[1]
  Ki: 78.3 nM

## Brc1ccncc1OC[C@@H]1CCCN1 [Example 20, 4-bromo-3-(2-(S)-pyrrolidinylmethoxy)pyridine dihydrochloride]
[1]
  Ki: 341 nM

## Cc1ccc(OC[C@@H]2CCCN2)cn1.Cl.Cl [Example 18, 6-methyl-3-(2-(S)-pyrrolidinylmethoxy)pyridine dihydrochloride]
[1]
  Ki: 0.28 nM
[2]; [7]
  Dopamine Release relative to Nicotine: 1.0

## CN1CCC[C@@H]1COc1cncc(C(F)(F)F)c1 [Example 54, 3-((1-methyl-2-(R)-pyrrolidinyl)methoxy)-5-trifluoromethylpyridine hydrochloride]
[1]; [8]
  Ki: 78 nM

## Cc1cncc(OC[C@@H]2CCCN2C)c1 [Example 73, 5-methyl-3-(1-methyl-2-(S)-pyrrolidinylmethoxy)pyridine dihydrochloride]
[1]; [8]
  Ki: 0.48 nM

## CN1CCC[C@H]1COc1ccc(CO)nc1 [Example 88, 6-hydroxymethyl-3-((1-methyl-2-(S)-pyrrolidinyl)methoxy)pyridine dihydrochloride]
[1]; [8]
  Ki: 10.4 nM

## CN1CC[C@H]1COc1ccc(Cl)nc1 [Example 86, 3-((1-methyl-2-(S)-azetidinyl)methoxy)-6-chloropyridine hydrochloride]
[1]; [8]
  Ki: 1.43 nM

## Cc1ncccc1OC[C@@H]1CCN1C [Example 30, 2-Methyl-3-((1-methyl-2-(S)-azetidinyl)methoxy)pyridine dihydrochloride]
[1]; [8]
  Ki: 129 nM

## CCCc1cncc(OC[C@@H]2CCCN2C)c1 [Example 77, 5-n-propyl-3-((1-methyl-2-(S)-pyrrolidinyl)methoxy)pyridine dihydrochloride]
[1]; [8]
  Ki: 0.1 nM

## CN1CCC[C@H]1COc1cncc([N+](=O)[O-])c1 [Example 108, 5-Nitro-3-(1-methyl-2(S)-pyrrolidinylmethoxy)pyridine hydrochloride]
[1]; [8]
  Ki: 4.9 nM

## FC(F)(F)c1cncc(OC[C@@H]2CCCN2)c1 [Example 66, 3-(2-(S)-pyrrolidinylmethoxy)-5-trifluoromethylpyridine dihydrochloride]
[1]; [8]
  Ki: 4 nM

## C[C@H]1CC[C@@H](COc2cccnc2)N1C [Example 22, 3-((cis-1,5-dimethyl-2-(S)-pyrrolidinyl)methoxy)pyridine dihydrochloride]
[1]
  Ki: 25 nM

## CN1CCC[C@H]1CCOc1cccnc1 [Example 103, 3-(2-(1-methyl-2-(S)-pyrrolidinyl)ethoxy)pyridine dihydrochloride]
[1]; [8]
  Ki: 18.4 nM
